The source of these data is PubChem BioAssay (NCI).

Holding throughout (assay): NCI anticancer screen, dose series, 48 h
For test [1], the system named is MDA-MB-435.
The subject of test [2] is SK-MEL-5 melanoma.
In test [3] the test system is ACHN renal.
In test [4] the test system is SK-MEL-28 melanoma.
For test [5], the system named is OVCAR-5 ovarian.
Test [6] concerns DU-145 prostate.
In test [7] the test system is HOP-18 NSCLC.
For test [8], the system named is DMS 114 small cell lung.
Test [9] has as its system M19-MEL melanoma.
Test [10] has as its system KM20L2 colon.
Test [11] has as its system DMS 273 small cell lung.
The test system of test [12] is DLD-1 colon.
The subject of test [13] is LXFL 529 NSCLC.
The test system of test [14] is RXF-631 renal.
Test [15] relates to SNB-78 CNS.
For test [16], the system named is XF 498 CNS.

Several values for one entry are separate records, joined by “and”; a condition that tells them apart may be missing. Identical values can stand only once.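 Where inhibition never reached the appropriate level, the endpoint shown equals the highest concentration tested. Otherwise, values were interpolated linearly from a five-concentration, 48-hour dose response in 96-well plates. Here, GI50 denotes the concentration required for 50% inhibition of growth. TGI: total growth inhibition.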 Some results are limits rather than exact numbers.

As for `COC1/C=C(C)/C=C/C(C)/C=C/C(=O)OC(/C(C)=C/C=C(\C)CNC(=O)[C@H](CO)NC=O)C(C)/C=C/C=C/C(OC)CC/C=C(C)/C=C/C1` (some centres undefined), the TGI is 0.047 µM in test [1]; 0.0654 µM in [2]; over 1 µM in [3]; over 1 µM in test [4]; over 1 µM in test [5]; over 1 µM in test [6].

Consider `Cc1ccc([N+](=O)[O-])cc1S(=O)(=O)Nc1ccc(C2=NN(S(=O)(=O)c3cc([N+](=O)[O-])ccc3C)C(c3ccccc3)C2)cc1` (centres undefined), for which the TGI in [1], in test [2], in [3], in test [4], in test [5] and in test [6] was over 100 µM throughout.

Take `CCCCN1C(=O)C2Cc3c([nH]c4ccccc34)C(c3cccc(O)c3)N2C1=O` (centres undefined): the TGI in [1] was 32.4 µM; in test [2], 31.1 µM; in [3], 34.1 µM; in [4], 34.3 µM; in test [5], 33 µM; in test [6] it was 33.1 µM.

Regarding `C[C@H]1C[C@@H]2[C@H]([C@@H](O)C[C@@]3(C)[C@H]2CC[C@]3(O)C(=O)CO)[C@@]2(C)C=CC(=O)C=C12`, the TGI in test [7], in [8], in [2], in test [9], in test [10] and in test [3] was over 100 µM throughout. Further, the TGI in [11], in [4], in [5] and in test [12] was over 100 µM throughout.

As to `CC(=O)Oc1ccccc1`, the TGI in [8], in test [2], in test [9], in test [13], in test [14] and in test [10] was over 100 µM each time. The TGI in test [3], in [11], in test [4], in [5] and in test [12] was over 100 µM each time.

On to `COc1cc(C(=O)NC2CCc3cc(OC)c(OC)c(OC)c3-c3ccc(OC)c(=O)cc32)cc(OC)c1OC` (centres undefined), for which the TGI is 0.0961 µM in test [1]; over 100 µM in test [7]; 0.1 µM in [8]; 0.377 µM in test [2]; over 100 µM in test [9]; over 100 µM in test [15]. Also, the TGI in test [16] is 16 µM; in test [13], 44.2 µM; in test [10], 0.326 µM; in test [3], over 100 µM; in test [11] it was over 100 µM; in test [4], over 100 µM. For the same compound, the TGI in test [5] and in [12] was over 100 µM in each case.

Regarding `c1ccc2c(CSCc3cccc4ccccc34)cccc2c1`, the TGI in test [1], in test [2], in test [3], in test [4], in [5] and in test [6] was over 100 µM in each case.

As for `Cc1c2ccccc2c(C2C3C(=O)N(c4ccc(Br)cc4)C(=O)C3ON2C(C(N)=O)c2ccccc2)c2ccccc12` (centres undefined), the TGI in test [1] was 12.9 µM; in test [2], 11.9 µM; in test [3], 17.3 µM; in [4], 74.6 µM; in test [5], 23.2 µM; in [6], 26.7 µM.

As for `COc1cc2c(c(OC)c1OC)-c1ccc(OC)c(=O)cc1C(NC(=O)COc1ccccc1)CC2` (centres undefined), the TGI in test [1] is under 0.01 µM; in test [7], over 100 µM; in test [8], under 0.01 µM; in [2], 0.0371 µM; in [9] it was over 100 µM; in test [15], over 100 µM. Moreover, the TGI in test [16] was 65.8 µM; in test [13], over 100 µM; in test [14], over 100 µM; in test [10], under 0.01 µM; in test [3], over 100 µM; in test [11] it was over 100 µM. The TGI in test [4] is over 100 µM; in [5], over 100 µM; in test [12], over 100 µM; in [6] it was under 0.01 µM.

Take `C[C@@H]1C[C@H]2[C@@H]3CCC4=CC(=O)C=C[C@]4(C)[C@@]3(F)[C@@H](O)C[C@]2(C)[C@@]1(O)C(=O)CO`: the TGI in test [8], in [2], in test [9], in test [13], in [10] and in [3] was over 100 µM throughout. Moreover, the TGI in [4], in [5] and in test [12] was over 100 µM each time.

`O=C(C=P(c1ccccc1)(c1ccccc1)c1ccccc1)c1ccc(-c2cccs2)cc1`: the TGI in test [1] was found to be 10.9 µM; in [2] it was 5.25 µM; in [3] it was 19.8 µM; in [4], 15.7 µM; in [5], 17.7 µM; in test [6], 22.3 µM.

For the compound `CCOC(=O)c1cnc(N(C)C)nc1SC(=N)N`, the TGI in test [1], in [2], in test [3], in test [4], in test [5] and in [6] was over 100 µM in each case.

In the case of `CCOc1cc(C2CC(c3ccc(NS(=O)(=O)c4cc([N+](=O)[O-])ccc4C)cc3)=NN2S(=O)(=O)c2cc([N+](=O)[O-])ccc2C)ccc1O` (centres undefined), the TGI in [1] was over 100 µM; in test [2], 64.8 µM; in test [3] it was over 100 µM; in [4], over 100 µM; in test [5], over 100 µM; in test [6], over 100 µM.

As for `CN1C=c2c3c(ccc2=C2C=CC4C=C5OCOC5=CC4=C21)OCO3` (centres undefined), the TGI is 2.45 µM and 3.61 µM in [1]; 2.95 µM and 6.14 µM in [2]; 3.08 µM and 5.03 µM in [3]; 3.07 µM and 7.28 µM in test [4]; 3.04 µM and 18.5 µM in test [5]; 3.76 µM and 24.3 µM in test [6]. In addition, the GI50 in test [3] is 1.68 µM and 1.85 µM; in [5], 1.65 µM and 6.19 µM; in test [6], 2.2 µM and 11.9 µM.

For `Cc1ccc2c(c1)SC1=Nc3sc4cc(C)ccc4[n+]3CN12`, the TGI was 20.2 µM in test [1]; 3.28 µM in [2]; over 100 µM in [3]; 29.2 µM in [4]; over 100 µM in test [5]; over 100 µM in test [6].

For `Cc1ccc(O)c(Cc2nc3ccccc3nc2-c2cccc(Cl)c2)c1`, the TGI was 54.9 µM in test [1]; over 100 µM in test [2]; over 100 µM in test [3]; over 100 µM in test [5]; over 100 µM in test [6].

As for `O=C(CSCC(=O)N/N=C/c1ccc2c(c1)OCO2)N/N=C/c1ccc2c(c1)OCO2`, the TGI in [1], in test [2], in test [3], in [4], in test [5] and in [6] was over 100 µM each time.

With `COc1ccccc1/C=C/c1ccnc2ccccc12`, the TGI in test [1] came out at 19.9 µM; in [2], 26.4 µM; in test [3], 32.8 µM; in [4], 31.1 µM; in [5], 32.4 µM; in test [6] it was 30.8 µM.

Regarding `CCCCc1ccc(N=C(N)N)cc1`, the TGI was over 100 µM in [1]; 26.8 µM in test [2]; over 100 µM in [3]; over 100 µM in [4]; over 100 µM in test [5]; over 100 µM in test [6].

As for `CC(=O)O[C@@H]1C[C@]2(C(=O)c3ccccc3)C(=O)C(=O)S[C@]12c1ccccc1`, the TGI in test [1], in [2], in test [3], in test [4], in test [5] and in [6] was over 100 µM in each case.

In the case of `C[n+]1cccc(NC(=O)c2ccc(NC(=O)C34CCC(C(=O)Nc5ccc(C(=O)Nc6ccc[n+](C)c6)cc5)(CC3)CC4)cc2)c1`, the TGI in test [7], in test [8], in [2], in [9], in test [15] and in test [13] was over 100 µM throughout. The TGI is over 100 µM in test [10]; over 100 µM in test [3]; 25.9 µM in [11]; over 100 µM in [4]; over 100 µM in [5]; over 100 µM in test [12].
